Where a name gives a salt, the structure may show the parent alone. Read-outs that look alike come from different tables or passages of the source.
Experiments:
[1] = target: SARS‐CoV PL^pro (Severe acute respiratory syndrome coronavirus, UniProt P0C6X7); assay: biochemical; type: biochemical
[2] = target: SARS‐CoV‐2 PL^pro (Severe acute respiratory syndrome coronavirus 2, UniProt P0DTD1); assay: biochemical; type: biochemical
[3] = tested on: SARS‐CoV‐2; assay: microbe, parasite or virus in culture; type: cell-based; settings: for EC50: Severe acute respiratory syndrome coronavirus 2, Vero C1008, 24 h, read-out: EC50 inhibition of SARS‐CoV‐2 replication
[4] = in vitro; settings: African green monkey
[5] = read-out: Percentage inhibition SARS‐CoV‐2 PL^pro
[6] = read-out: Inhibition SARS‐CoV PL^pro, class (Table 1)
[7] = read-out: Inhibition SARS‐CoV‐2 PL^pro, class (Table 1)
[8] = read-out: Percentage inhibition SARS‐CoV PL^pro
[9] = read-out: Inhibition SARS‐CoV‐2 PL^pro, class (Table 2)
[10] = read-out: Inhibition SARS‐CoV PL^pro, class (Table 2)

For “2‐Methyl‐N‐(naphth‐1‐ylethyl]benzamide [Compound 4 b]”, the “Inhibition of SARS‐CoV PL^pro, in words” value [1] was “inactive” and the “Inhibition SARS‐CoV PL^pro, class (Table 1)” value ([1]; 100 µM) was “n.a.^[b] (key: Compounds with inhibitory effect less than 50 % at 100 μM compared to DMSO were labelled as not active (n.a.))”.
In the case of Cc1ccccc1C(=O)N[C@H](C)c1cccc2ccccc12 [Compound 2 a, 2‐Methyl‐N‐[(1R)‐naphth‐1‐ylethyl]benzamide, reference compound], the IC50 [2] is reported as 6.9 ± 0.7 µM.
Compound C[C@@H](NC(=O)c1ccccc1)c1cccc2ccccc12 [Compound 2 c, N ‐[(1R)‐1‐Naphth‐1‐ylethyl]benzamide] has an IC50 [1] of 62 ± 5 µM, an inhibition at 100 µM [2, 5] of 60% and a melting point of 195 °C.
With C[C@@H](NC(=O)c1ccccc1C(F)(F)F)c1cccc2ccccc12 [Compound 2 d, N ‐[(1R)‐1‐Naphth‐1‐ylethyl]‐2‐(trifluormethyl)benzamide] the inhibition at 100 µM [1, 6] was < 50%.
For C[C@@H](NC(=O)c1ccccc1C#N)c1cccc2ccccc12 [Compound 2 e, (R)‐2‐Cyano‐N‐(1‐(naphth‐1‐yl)ethyl)benzamide], the IC50 [1] was 18 ± 2 µM, the inhibition at 100 µM [2, 7] was < 50% and the melting point was 181 °C.
Work on C[C@@H](NC(=O)c1ccccc1F)c1cccc2ccccc12 [Compound 2 f, 2‐Fluor‐N‐[(1R)‐1‐naphth‐1‐ylethyl]benzamide] yielded an IC50 [1] of 9 ± 1 µM, an inhibition at 100 µM [2, 5] of 67% and a melting point of 135 °C.
C[C@@H](NC(=O)c1ccccc1Br)c1cccc2ccccc12 [Compound 2 g, 2‐Bromo‐N‐[(1R)‐1‐naphth‐1‐ylethyl]benzamide] showed an IC50 [1] of 11 ± 2 µM, an inhibition at 100 µM [2, 5] of 73% and a melting point of 153 °C.
With C[C@@H](NC(=O)c1ccccc1I)c1cccc2ccccc12 [Compound 2 h, 2‐Iodo‐N‐[(1R)‐1‐naphth‐1‐ylethyl]benzamide] the IC50 [1] was 25 ± 3 µM, the inhibition at 100 µM [2, 7] was < 50% and the melting point was 161 °C.
With C[C@@H](NC(=O)C1CCCCC1)c1cccc2ccccc12 [Compound 2 j, N ‐[(1R)‐1‐Naphth‐1‐ylethyl]cyclohexanecarboxamide] the “Inhibition of SARS‐CoV PL^pro, in words” value [1] was “inactive”, the inhibition at 100 µM [1, 6] was < 50% and the melting point was 170 °C.
In the case of C[C@@H](NC(=O)C(C)(C)C)c1cccc2ccccc12 [Compound 2 k], the “Inhibition of SARS‐CoV PL^pro, in words” value [1] is reported as “inactive”, the inhibition at 100 µM [1, 6] is reported as < 50% and the melting point is reported as 131 °C.
C[C@@H](NC(=O)Cc1ccccc1)c1cccc2ccccc12 [Compound 2 l, N ‐[(1R)‐1‐Naphth‐1‐ylethyl]‐2‐phenylacetamid] showed an inhibition at 100 µM [1, 8] of 57% and a melting point of 130 °C.
In the case of C[C@@H](NC(=O)C(c1ccccc1)c1ccccc1)c1cccc2ccccc12 [Compound 2 m, (R)‐N‐(1‐(naphthalen‐1‐yl)ethyl)‐2,2‐diphenylacetamide], the “Inhibition of SARS‐CoV PL^pro, in words” value [1] is reported as “no inhibition”, the inhibition at 100 µM [1, 6] is reported as < 50% and the melting point is reported as 152 °C.
With Cc1ccsc1C(=O)N[C@H](C)c1cccc2ccccc12 [Compound 2 n, 3‐Methyl‐N‐[(1R)‐1‐naphth‐1‐ylethyl]thiophene‐2‐carboxamide] the IC50 [1] was 14 ± 1 µM, the IC50 [2] was 42 ± 6 µM and the “SI (selectivity index)” value [3] was >105. The EC50 [3] was 4.74 ± 1.35 µM and the CC50 [4] was > 500 µM.
For Cc1cc(NC(=O)OC(C)(C)C)ccc1C(=O)N[C@H](C)c1cccc2ccccc12 [Compound 2 o, (R)‐tert‐Butyl(3‐Methyl‐4‐((1‐(naphth‐1‐yl)ethyl)carbamoyl)phenyl)carbamate], the IC50 [1] was 1.6 ± 0.3 µM.
With Cc1cc(N)ccc1C(=O)N[C@H](C)c1cccc2ccccc12.Cl [Compound 2 p, (R)‐4‐Amino‐2‐methyl‐N‐[1‐(naphth‐1‐yl)ethyl]benzamide hydrochloride] the IC50 [2] was 7.5 ± 0.6 µM, the “SI (selectivity index)” value [3] was >31.7 and the EC50 [3] was 15.8 ± 1.59 µM. For the same compound, the melting point was 231 °C and the CC50 [4] was > 500 µM.
Work on Cc1ccc(NC(=O)OC(C)(C)C)cc1C(=O)N[C@H](C)c1cccc2ccccc12 [Compound 2 q, (R)‐tert‐Butyl (4‐Methyl‐3‐((1‐(naphth‐1‐yl)ethyl)carbamoyl)phenyl) carbamate] yielded an IC50 [1] of 4.6 ± 0.4 µM.
Cc1ccc(N(C)C)cc1C(=O)N[C@H](C)c1cccc2ccccc12 [Compound 2 r, (R)‐5‐(Dimethylamino)‐2‐methyl‐N‐[1‐(naphth‐1‐yl)ethyl]benzamide] showed an IC50 [1] of 4 ± 0.2 µM and an IC50 [2] of 10 ± 2 µM.
Work on Cc1cc(NS(C)(=O)=O)ccc1C(=O)N[C@H](C)c1cccc2ccccc12 [Compound 2 s, 2‐Methyl‐4‐[(methylsulfonyl)amino]‐N‐[(1R)‐1‐naphth‐1‐ylethyl]benzamide] yielded an IC50 [1] of 4.8 ± 0.3 µM and an IC50 [2] of 10 ± 1 µM.
With CNS(=O)(=O)c1ccc(C)c(C(=O)N[C@H](C)c2cccc3ccccc23)c1 [Compound 2 t, 2‐Methyl‐5‐(methylsulfamoyl)‐N‐[(1R)‐1‐naphth‐1‐ylethyl]benzamide] the IC50 [1] was 4 ± 0.3 µM, the inhibition at 100 µM [2, 5] was 87% and the melting point was 184 °C.
For Cc1ccccc1C(=O)NC(C)c1ccccc1 (stereo not shown) [Compound 4 a, 2‐Methyl‐N‐(1‐phenyl)benzamide], the inhibition at 100 µM [1, 6] was < 50%.
With Cc1ccccc1C(=O)NC(c1ccccc1)c1ccccc1 [Compound 4 c, N ‐(Diphenylmethyl)‐2‐methylbenzamide] the “Inhibition of SARS‐CoV PL^pro, in words” value [1] was “inactive” and the inhibition at 100 µM [1, 6] was < 50%.
For Cc1ccccc1C(=O)N[C@@H](C)c1cccc2ccccc12 [Compound 4 d, 2‐Methyl‐N‐[(1S)‐1‐naphth‐1‐ylethyl]benzamide], the inhibition at 100 µM [1, 6] was < 50%, the “Inhibition of SARS‐CoV‐2 PL^pro, in words” value [2] was “not show inhibitory activity” and the inhibition at 100 µM [2, 7] was < 50%.
For Cc1ccccc1C(=O)NC(CO)c1cccc2ccccc12 (stereo not shown) [Compound 8, N ‐(2‐Hydroxy‐1‐naphth‐1‐ylethyl)‐2‐methylbenzamide], the “Inhibition of SARS‐CoV PL^pro, in words” value [1] was “inactivity” and the inhibition at 100 µM [1, 6] was < 50%.
In the case of Cc1ccccc1NC(=O)C(C)c1cccc2ccccc12 (stereo not shown) [Compound 11 a, N ‐(2‐Methylphenyl)‐2‐naphth‐1‐ylpropanamide], the inhibition at 100 µM [1, 6] is reported as < 50%, the “Inhibition of SARS‐CoV‐2 PL^pro, in words” value [2] is reported as “not show inhibitory activity” and the inhibition at 100 µM [2, 7] is reported as < 50%. The melting point was 151 °C.
In the case of CC(C(=O)Nc1ccccc1F)c1cccc2ccccc12 (stereo not shown) [Compound 11 b, N ‐(2‐Fluorphenyl)‐2‐naphth‐1‐ylpropanamide], the inhibition at 100 µM [1, 6] is reported as < 50%, the inhibition at 100 µM [2, 7] is reported as < 50% and the melting point is reported as 116 °C.
With CC(C(=O)Nc1ccc(S(N)(=O)=O)cc1)c1cccc2ccccc12 (stereo not shown) [Compound 11 c, 2‐Naphth‐1‐yl‐N‐(4‐sulfamoylphenyl)propanamide] the inhibition at 100 µM [1, 6] was < 50%, the inhibition at 100 µM [2, 7] was < 50% and the melting point was 206 °C.
With CC(C(=O)NC1CCCCC1)c1cccc2ccccc12 (stereo not shown) [Compound 11 d, N ‐Cyclohexyl‐2‐naphth‐1‐ylpropanamide] the inhibition at 100 µM [1, 6] was < 50%, the inhibition at 100 µM [2, 7] was < 50% and the melting point was 151 °C.
For Cc1cccc2c1CN([C@H](C)c1cccc3ccccc13)C2.Cl [Compound 14 a, 4‐Methyl‐2‐[(1R)‐1‐naphth‐1‐ylethyl]‐2,3‐dihydro‐1H‐isoindol hydrochloride], the inhibition at 10 µM [1, 8] was 45%, the inhibition at 100 µM [2, 9] was < 50% and the melting point was 247 °C.
For c1ccc2c(c1)CN(Cc1cccc3ccccc13)C2 [Compound 14 c, 2‐(Naphth‐1‐ylmethyl)‐2,3‐dihydro‐1H‐isoindol hydrochloride], the inhibition at 100 µM [1, 10] was < 50%.
In the case of COc1ccc2c(c1)CN([C@H](C)c1cccc3ccccc13)C2 [Compound 14 d, 5‐Methoxy‐2‐[(1R)‐1‐naphth‐1‐ylethyl]‐2,3‐dihydro‐1H‐isoindol], the IC50 [1] is reported as 14 ± 1 µM and the inhibition at 100 µM [2, 9] is reported as < 50%.
In the case of C[C@H](c1cccc2ccccc12)N1Cc2cccc([N+](=O)[O-])c2C1 [Compound 14 e, 2‐[(1R)‐1‐Naphth‐1‐ylethyl]‐4‐nitro‐2,3‐dihydro‐1H‐isoindole], the “Inhibition of SARS‐CoV PL^pro, in words” value [1] is reported as “Inactive” and the inhibition at 10 µM [1, 8] is reported as < 50%.
For C[C@H](c1cccc2ccccc12)N1Cc2ccc([N+](=O)[O-])cc2C1 [Compound 14 f, 2‐[(1R)‐1‐Naphth‐1‐ylethyl]‐5‐nitro‐2,3‐dihydro‐1H‐isoindole], the “Inhibition of SARS‐CoV PL^pro, in words” value [1] was “Inactive” and the inhibition at 100 µM [1, 10] was < 50%.
With C[C@H](c1cccc2ccccc12)N1Cc2ccccc2C1.Cl [Compound 14 h, 2‐[(1R)‐1‐Naphth‐1‐ylethyl]‐2,3‐dihydro‐1H‐isoindol hydrochloride] the IC50 [1] was 2.9 ± 0.2 µM, the IC50 [2] was 7.6 ± 0.2 µM and the “SI (selectivity index)” value [3] was 56.3. For the same compound, the EC50 [3] was 7.85 ± 1.5 µM and the CC50 [4] was 442 ± 1.37 µM.
For C[C@@H](c1cccc2ccccc12)N1Cc2ccccc2C1.Cl [Compound 14 i, 2‐[(1S)‐1‐Naphth‐1‐ylethyl]‐2,3‐dihydro‐1H‐isoindol hydrochloride], the “Inhibition of SARS‐CoV PL^pro, in words” value [1] was “abolished activity”, the inhibition at 100 µM [1, 10] was < 50% and the “Inhibition of SARS‐CoV‐2 PL^pro, in words” value [2] was “not show inhibitory activity”. The inhibition at 100 µM [2, 9] was < 50%.
For C[C@H](c1cccc2ccccc12)N1Cc2cccc(N)c2C1 [Compound 14 j, 2‐[(1R)‐1‐Naphth‐1‐ylethyl]‐2,3‐dihydro‐1H‐isoindol‐4‐amine], the IC50 [1] was 32 ± 2 µM and the inhibition at 100 µM [2, 9] was < 50%.
With C[C@H](c1cccc2ccccc12)N1Cc2ccc(N)cc2C1 [Compound 14 k, 2‐[(1R)‐1‐Naphth‐1‐ylethyl]‐2,3‐dihydro‐1H‐isoindol‐5‐amine] the IC50 [1] was 4.9 ± 0.3 µM, the IC50 [2] was 57 ± 1 µM and the “Activity in the viral replication assay, in words” value ([3]; SARS‐CoV‐2, Vero E6 cells) was “completely inactive”. For the same compound, the CC50 [4] was > 500 µM.
C[C@H](c1cccc2ccccc12)N1Cc2ccc(O)cc2C1 [Compound 14 l, 2‐[(1R)‐1‐Naphth‐1‐ylethyl]‐2,3‐dihydro‐1H‐isoindol‐5‐ol hydrochloride] gave an IC50 [1] of 4.5 ± 0.4 µM.
Compound Cc1ccccc1CN[C@H](C)c1cccc2ccccc12 [Compound 17, (1R)‐N‐(2‐Methylbenzyl)‐1‐naphth‐1‐ylethylamine hydrochloride] has an inhibition at 100 µM [1, 8] of 55%.
